From the NIST ThermoML archive (doi:10.1021/je0340248)
Numbers after ± are expanded uncertainties.

Assay: xn = mol fraction of the nth substance listed
Details: 101 kPa, Liquid

CC(O)CO (stereo unspecified) [1,2-propanediol] + CCOC(C)=O
Details | mass density, 298.15 K [kg/m3] | mass density, 303.15 K [kg/m3] | mass density, 308.15 K [kg/m3] | mass density, 313.15 K [kg/m3] | speed of sound, 298.15 K [m/s] | speed of sound, 308.15 K [m/s] | viscosity, 298.15 K [mPa·s] | viscosity, 308.15 K [mPa·s]
x2 = 0.0451 | 1024.21 ± 0.35 | 1020.33 ± 0.36 | 1016.53 ± 0.37 | 1012.46 ± 0.38 | 1463 ± 2 | 1429 ± 2 | 32.32 ± 0.44 | 19.38 ± 0.34
x2 = 0.1493 | 1005.58 ± 0.42 | 1001.36 ± 0.43 | 997.21 ± 0.44 | 992.76 ± 0.45 | 1401 ± 2 | 1371 ± 2 | 16.84 ± 0.25 | 11.71 ± 0.16
x2 = 0.2515 | 988.63 ± 0.48 | 984.09 ± 0.5 | 979.68 ± 0.51 | 974.9 ± 0.52 | 1343 ± 2 | 1317 ± 2 | 9.278 ± 0.13 | 7.28 ± 0.1
x2 = 0.3514 | 973.2 ± 0.55 | 968.36 ± 0.56 | 963.71 ± 0.57 | 958.63 ± 0.59 | 1294 ± 2 | 1268 ± 2 | 5.396 ± 0.081 | 4.653 ± 0.068
x2 = 0.4393 | 960.46 ± 0.6 | 955.37 ± 0.61 | 950.52 ± 0.63 | 945.17 ± 0.65 | 1255 ± 2 | 1229 ± 2 | 3.463 ± 0.053 | 3.184 ± 0.048
x2 = 0.5 | 952.1 ± 0.63 | 946.85 ± 0.65 | 941.84 ± 0.66 | 936.31 ± 0.68 | 1232 ± 2 | 1205 ± 2 | 2.597 ± 0.04 | 2.469 ± 0.038
x2 = 0.5497 | 945.49 ± 0.66 | 940.12 ± 0.68 | 934.99 ± 0.69 | 929.3 ± 0.71 | 1215 ± 2 | 1186 ± 2 | 2.075 ± 0.032 | 2.014 ± 0.031
x2 = 0.6505 | 932.74 ± 0.71 | 927.13 ± 0.73 | 921.75 ± 0.75 | 915.78 ± 0.77 | 1186 ± 2 | 1153 ± 2 | 1.357 ± 0.022 | 1.351 ± 0.022
x2 = 0.7495 | 921.01 ± 0.76 | 915.21 ± 0.78 | 909.59 ± 0.8 | 903.37 ± 0.82 | 1164 ± 2 | 1128 ± 2 | 0.93 ± 0.016 | 0.928 ± 0.016
x2 = 0.8499 | 909.87 ± 0.81 | 903.92 ± 0.83 | 898.1 ± 0.85 | 891.68 ± 0.87 | 1149 ± 2 | 1109 ± 2 | 0.661 ± 0.012 | 0.645 ± 0.011
x2 = 0.9487 | 899.61 ± 0.85 | 893.57 ± 0.87 | 887.61 ± 0.89 | 881.09 ± 0.91 | 1140 ± 2 | 1098 ± 2 | 0.491 ± 0.009 | 0.459 ± 0.009

OCCOCCO [diethylene glycol] + COC(C)=O
Details | mass density, 298.15 K [kg/m3] | mass density, 303.15 K [kg/m3] | mass density, 308.15 K [kg/m3] | mass density, 313.15 K [kg/m3] | speed of sound, 298.15 K [m/s] | speed of sound, 308.15 K [m/s] | viscosity, 298.15 K [mPa·s] | viscosity, 308.15 K [mPa·s]
x2 = 0.0406 | 1107.83 ± 0.31 | 1103.83 ± 0.31 | 1100.41 ± 0.3 | 1097.07 ± 0.3 | 1562 ± 2 | 1533 ± 2 | 26.42 ± 0.38 | 14.2 ± 0.3
x2 = 0.1512 | 1091.77 ± 0.32 | 1087.47 ± 0.32 | 1083.89 ± 0.32 | 1080.13 ± 0.32 | 1513 ± 2 | 1485 ± 2 | 18.27 ± 0.29 | 8.812 ± 0.21
x2 = 0.2516 | 1076.55 ± 0.34 | 1071.84 ± 0.34 | 1068.15 ± 0.34 | 1063.99 ± 0.35 | 1472 ± 2 | 1441 ± 2 | 12.72 ± 0.21 | 5.78 ± 0.15
x2 = 0.3488 | 1061.26 ± 0.37 | 1056.15 ± 0.38 | 1052.35 ± 0.38 | 1047.79 ± 0.38 | 1431 ± 2 | 1398 ± 2 | 8.747 ± 0.15 | 3.883 ± 0.11
x2 = 0.44 | 1046.36 ± 0.41 | 1040.88 ± 0.42 | 1036.96 ± 0.42 | 1032.05 ± 0.43 | 1392 ± 2 | 1357 ± 2 | 6.023 ± 0.11 | 2.698 ± 0.077
x2 = 0.4926 | 1037.46 ± 0.44 | 1031.79 ± 0.44 | 1027.79 ± 0.45 | 1022.69 ± 0.46 | 1370 ± 2 | 1334 ± 2 | 4.811 ± 0.089 | 2.196 ± 0.062
x2 = 0.5504 | 1027.35 ± 0.46 | 1021.49 ± 0.47 | 1017.4 ± 0.48 | 1012.1 ± 0.49 | 1345 ± 2 | 1308 ± 2 | 3.728 ± 0.069 | 1.757 ± 0.047
x2 = 0.6509 | 1008.76 ± 0.51 | 1002.63 ± 0.53 | 998.36 ± 0.53 | 992.71 ± 0.55 | 1301 ± 2 | 1260 ± 2 | 2.345 ± 0.044 | 1.203 ± 0.029
x2 = 0.751 | 988.53 ± 0.57 | 982.17 ± 0.59 | 977.74 ± 0.6 | 971.76 ± 0.62 | 1258 ± 2 | 1213 ± 2 | 1.44 ± 0.027 | 0.834 ± 0.018
x2 = 0.8504 | 966.18 ± 0.64 | 959.59 ± 0.66 | 955.04 ± 0.67 | 948.73 ± 0.69 | 1214 ± 2 | 1168 ± 2 | 0.866 ± 0.016 | 0.586 ± 0.012
x2 = 0.9429 | 942.76 ± 0.72 | 935.89 ± 0.74 | 931.35 ± 0.75 | 924.7 ± 0.77 | 1174 ± 2 | 1127 ± 2 | 0.527 ± 0.01 | 0.426 ± 0.008
